# “Also recorded” adds a separate entry of the source. Square brackets hold non-standard residues; d marks the D form. Ends that are not written are not given here. Peptide text beside a SMILES is read from it. Phe(4-Cl) = N[C@@H](Cc1ccc(Cl)cc1)C(=O)O; Nle = CCCC[C@H](N)C(=O)O; Abu = CC[C@H](N)C(=O)O
# Experiments:
# Type in all cases: cell-based, human
# HUVEC [1] = experiment: HUVEC migration assay (RT-CIM); details: for Migration Inhibition (50 uM): 50 uM peptide; for Activity in Migration: Yes/No summary, active = inhibitory potential greater than 30%; for inhibition of migration: concentration not given
# Method: The inhibitory potential of the peptides was measured using a real time migration assay system based on electrical impedance (RT-CIM, ACEA Biosciences, CA). CIM 16 well plates (Roche, 05665817001) are composed of a top and bottom chamber separated by a microporous (8 μm) polycarbonate membrane. The membrane was coated with fibronectin (20 μg/mL), and 45,000 cells/well in serum free media with or without peptides were added to the top compartment. Media with chemoattractant (i.e., fully supplemented EBM-2) was added to the bottom compartment of the chamber and the plate was incubated at 37° C. for 20 hours. The sensors integrated on the bottom side of the membrane monitor and continuously record changes in impedance as the cells move through the membrane. The RT-CIM technology allows for easy quantification of cell migration by monitoring the cell index derived from the measured impedances. Assays were performed in at least two independent replicates and each replicate was performed using two experimental duplicates.
# HUVEC [2] = details: HUVEC; for Adhesion Inhibition (100 uM): 100 uM peptide; for Activity in Adhesion: Yes/No summary, active = inhibitory potential greater than 30%
# Method: Similar to the migration assays, the inhibition activity of the peptide in cellular adhesion was assessed using the RT-CIM technology. In this case, 25,000 cells/well were plated in 16 wells E-plates (Roche, Basel Switzerland) in the presence or absence of the peptide. The adhesion was monitored over time (3 hours) by measuring changes in the electrical impedance, which is a direct measure of the cells adhering on the electrodes. […] Assays were performed in at least two independent replicates and each replicate was performed using two experimental duplicates.
# HUVEC [3] = details: for inhibition of proliferation / Activity in Proliferation / Proliferation Inhibition (IC50 in uM): HUVEC; for Activity in Proliferation: Yes/No summary; for Proliferation Inhibition (IC50 in uM): summary tables 2-4, 6, 7
# Method: Several assays were used to test the peptides discussed in the Examples herein. A colorimetric based proliferation assay using WST-1 (Roche, 11644807001) proliferation reagent was carried out using HUVEC cells. 2000 cells/well were plated in 96-well plates and allowed to adhere overnight. On the following day, the media was exchanged with fully supplemented media containing peptides or equivalent DMSO vehicle for the controls. Three days later the media containing the peptides was replaced with serum-free EBM-2 media containing WST-1 reagent and the plates were incubated for four hours as per the manufacturer's recommendations. Changes in color, due to the formazan dye resulted from the cleavage of the tetrazolium salt WST-1 by the mitochondrial succinate-tetrazolium reductase, were read on a Victor V fluorescence plate reader (Perkin Elmer, MA) by measuring the absorbance at 450 nm Dose response curves of percent live cells (in comparison to untreated cells but incubated in complete media with 0.2% DMSO) were created. Assays were performed in at least two independent replicates and each replicate was performed using three experimental triplicates.
# HUVEC [4] = experiment: HUVEC tube formation assay on Matrigel; details: for Tube formation Inhibition (100 uM): 100 uM peptide; for Activity in Tube formation: Yes/No summary; for inhibition of tube formation: concentration not given; for inhibition of tube formation (FIG. 20): high dose, 100 nM
# Method: The compounds also were tested for their ability to inhibit tube formation, a process critical in angiogenesis. Endothelial cells spontaneously form a network of tubes when plated on extracts of extracellular matrix. This in vitro assay combines aspects of adhesion and migration and it is routinely used in angiogenesis research (Oliveira-Ferrer et al., 2008). The ability to inhibit tube formation is a comprehensive assessment of the anti-angiogenic potential. The protocol was described by Arnaoutova et al. (2009) and it consists of plating HUVEC on top of basement membrane extract and after incubation at 37° C. the cells naturally rearrange themselves in a network of tubes. Thus, 50 μL/well of Matrigel (BD Biosciences, San Jose, Calif.) was plated in a cold 96 well plate and incubated at 37° C. for 30 min for polymerization. 15,000 cells/well were added to the top of the gel and incubated in complete media in the presence or absence of peptide for 19 hours. Images were captured using the CCD Sensicam mounted on a Nikon microscope (Eclipse T-100). Assays were performed in at least two independent replicates and each replicate was performed using three experimental replicates and one image of a randomly chosen field was acquired per well.
Compound,Migration Inhibition (50 uM) (HUVEC [1]),Adhesion Inhibition (100 uM) (HUVEC [2]),inhibition of proliferation (HUVEC [3]),Activity in Proliferation (HUVEC [3]),Migration Inhibition (5 uM) (HUVEC [1]; 5 uM peptide) [%],Activity in Migration (HUVEC [1]),Activity in Adhesion (HUVEC [2]),Tube formation Inhibition (100 uM) (HUVEC [4]),Activity in Tube formation (HUVEC [4]),inhibition of tube formation (HUVEC [4]),IC50 (HUVEC [3]) [µM],inhibition of tube formation (FIG. 20) (HUVEC [4]),Proliferation Inhibition (IC50 in uM) (HUVEC [3]),inhibition of migration (HUVEC [1]),inhibition of adhesion (HUVEC [2]; concentration not given)
"CC[C@H](NC(=O)[C@H](Cc1ccccc1)NC(=O)[C@H](C)NC(=O)[C@H](Cc1ccccc1)NC(=O)[C@@H]1CCCN1C(=O)[C@H](CCSC)NC(=O)[C@@H](NC(=O)[C@H](CO)NC(=O)[C@H](Cc1ccccc1)NC(=O)[C@H](CCCNC(=N)N)NC(=O)[C@H](CCCNC(=N)N)NC(=O)[C@@H](N)CC(C)C)[C@@H](C)O)C(=O)N[C@@H](CC(N)=O)C(=O)N[C@H](C(=O)N[C@@H](CC(N)=O)C(=O)N[C@@H](CC(N)=O)C(=O)N[C@H](C(=O)N[C@@H](CC)C(=O)N[C@@H](CC(N)=O)C(=O)N[C@@H](Cc1ccccc1)C(N)=O)C(C)C)[C@@H](C)CC [SP2016, LRRFSTMPFAF(Abu)NINNV(Abu)NF] (H-LRRFSTMPFAF[Abu]NINNV[Abu]NF-NH2; N-terminus assumed)",99.6%,96%,–,–,–,–,–,–,–,–,–,–,–,–,–
LRRFSTMPFMFTNINNVTNF-NH2 [SP2025],–,96.48%,not affected,Yes,18.19,Yes,Yes,Complete,Yes,–,–,–,–,–,–
"CC[C@H](NC(=O)[C@H](Cc1ccccc1)NC(=O)[C@H](CCSC)NC(=O)[C@H](C)NC(=O)[C@@H]1CCCN1C(=O)[C@H](CCSC)NC(=O)[C@@H](NC(=O)[C@H](CO)NC(=O)[C@H](Cc1ccccc1)NC(=O)[C@H](CCCNC(=N)N)NC(=O)[C@H](CCCNC(=N)N)NC(=O)[C@@H](N)CC(C)C)[C@@H](C)O)C(=O)N[C@@H](CC(N)=O)C(=O)N[C@H](C(=O)N[C@@H](CC(N)=O)C(=O)N[C@@H](CC(N)=O)C(=O)N[C@H](C(=O)N[C@@H](CC)C(=O)N[C@@H](CC(N)=O)C(=O)N[C@@H](Cc1ccccc1)C(N)=O)C(C)C)[C@@H](C)CC [SP2015, LRRFSTMPAMF(Abu)NINNV(Abu)NF] (H-LRRFSTMPAMF[Abu]NINNV[Abu]NF-NH2; N-terminus assumed)",100%,96%,–,–,–,–,–,Complete,–,significant inhibition of tube formation,–,–,–,–,–
"CC[C@H](NC(=O)[C@H](Cc1ccccc1)NC(=O)[C@H](CCSC)NC(=O)[C@@H](N)Cc1ccccc1)C(=O)N[C@@H](CC(N)=O)C(=O)N[C@H](C(=O)N[C@@H](CC(N)=O)C(=O)N[C@@H](CC(N)=O)C(=O)N[C@H](C(=O)N[C@@H](CC)C(=O)N[C@@H](CC(N)=O)C(=O)N[C@@H](Cc1ccccc1)C(=O)O)C(C)C)[C@@H](C)CC [SP2010, FMFAbuNINNVAbuNF] (H-FMF[Abu]NINNV[Abu]NF-OH; N-terminus and C-terminus assumed)",13%,82.69%,–,No,–,No,Yes,complete inhibition of tube formation,Yes,–,155,displayed activity in inhibiting tube formation,–,–,–
NINNVAbuNF (NINNVXNF; Abu non-natural residue; Artificial sequence based on the human Collagen Type IV protein) [SP2009],55%,0%,–,No,–,Yes,No,Partial,Yes,–,–,displayed activity in inhibiting tube formation,Inactive,inhibitory activity; also recorded: active in migration,–
"LNRFSTMPF [SP2013, LNRFSTMPF]",Inactive,0.3%,–,No,–,No,No,Inactive,No,–,> 100,–,Inactive,absence of activity,absence of activity
"LRRFSTMPFMFININN-NH2 [SP2033, LRRFSTMPFMFININN]",42.01%,94%,potent activity in inhibiting proliferation,Yes,–,Yes,Yes,Complete,Yes,Inhibition of tube formation,–,–,–,–,–
"CC[C@H](NC(=O)[C@H](Cc1ccc(Cl)cc1)NC(=O)[C@H](CCSC)NC(=O)[C@H](Cc1ccccc1)NC(=O)[C@@H]1CCCN1C(=O)[C@H](CCSC)NC(=O)[C@@H](NC(=O)[C@H](CO)NC(=O)[C@H](Cc1ccccc1)NC(=O)[C@H](CCCNC(=N)N)NC(=O)[C@H](CCCNC(=N)N)NC(=O)[C@@H](N)CC(C)C)[C@@H](C)O)C(=O)N[C@@H](CC(N)=O)C(=O)N[C@H](C(=O)N[C@@H](CC(N)=O)C(=O)N[C@@H](CC(N)=O)C(=O)N[C@H](C(=O)N[C@@H](CC)C(=O)N[C@@H](CC(N)=O)C(=O)N[C@@H](Cc1ccccc1)C(N)=O)C(C)C)[C@@H](C)CC [SP2019, LRRFSTMPFM(4-ClPhe)(Abu)NINNV(Abu)NF] (H-LRRFSTMPFM[Phe(4-Cl)][Abu]NINNV[Abu]NF-NH2; N-terminus assumed)",98%,95.9%,–,–,–,–,–,–,–,–,–,–,–,–,–
"LRRFSTMPFMF [SP2004, LRRFSTMPFMF]",–,–,inactive,No,–,No,No,Inactive,No,–,> 100,–,Inactive,–,–
"CC[C@H](NC(=O)[C@H](C)NC(=O)[C@H](CCSC)NC(=O)[C@H](Cc1ccccc1)NC(=O)[C@@H]1CCCN1C(=O)[C@H](CCSC)NC(=O)[C@@H](NC(=O)[C@H](CO)NC(=O)[C@H](Cc1ccccc1)NC(=O)[C@H](CCCNC(=N)N)NC(=O)[C@H](CCCNC(=N)N)NC(=O)[C@@H](N)CC(C)C)[C@@H](C)O)C(=O)N[C@@H](CC(N)=O)C(=O)N[C@H](C(=O)N[C@@H](CC(N)=O)C(=O)N[C@@H](CC(N)=O)C(=O)N[C@H](C(=O)N[C@@H](CC)C(=O)N[C@@H](CC(N)=O)C(=O)N[C@@H](Cc1ccccc1)C(N)=O)C(C)C)[C@@H](C)CC [SP2017, LRRFSTMPFMA(Abu)NINNV(Abu)NF] (H-LRRFSTMPFMA[Abu]NINNV[Abu]NF-NH2; N-terminus assumed)",100%,95.5%%,–,–,–,–,–,–,–,–,–,–,–,–,–
LRRFSTMPFMFGNINNVGNF-NH2 [SP2002],87.9%,–,–,–,–,–,–,Complete,–,–,31.4,–,–,–,–
"CCCC[C@H](NC(=O)[C@H](Cc1ccccc1)NC(=O)[C@@H]1CCCN1C(=O)[C@H](CCSC)NC(=O)[C@@H](NC(=O)[C@H](CO)NC(=O)[C@H](Cc1ccccc1)NC(=O)[C@H](CCCNC(=N)N)NC(=O)[C@H](CCCNC(=N)N)NC(=O)[C@@H](N)CC(C)C)[C@@H](C)O)C(=O)N[C@@H](Cc1ccccc1)C(=O)N[C@@H](CC)C(=O)N[C@@H](CC(N)=O)C(=O)N[C@H](C(=O)N[C@@H](CC(N)=O)C(=O)N[C@@H](CC(N)=O)C(=O)N[C@H](C(=O)N[C@@H](CC)C(=O)N[C@@H](CC(N)=O)C(=O)N[C@@H](Cc1ccccc1)C(N)=O)C(C)C)[C@@H](C)CC [SP2018, LRRFSTMPF(Nle)F(Abu)NINNV(Abu)NF] (H-LRRFSTMPF[Nle]F[Abu]NINNV[Abu]NF-NH2; N-terminus assumed)",100%,90.9%%,–,–,–,–,–,–,–,–,–,–,–,–,–
